# Assays:
# [1] = molecular target: T1, Potassium channel subfamily T member 1 (Homo sapiens, UniProt Q5JUK3); assay: Inhibition of human SLACK expressed in HEK293 cells
# T1 sequence (Q5JUK3 whole entry): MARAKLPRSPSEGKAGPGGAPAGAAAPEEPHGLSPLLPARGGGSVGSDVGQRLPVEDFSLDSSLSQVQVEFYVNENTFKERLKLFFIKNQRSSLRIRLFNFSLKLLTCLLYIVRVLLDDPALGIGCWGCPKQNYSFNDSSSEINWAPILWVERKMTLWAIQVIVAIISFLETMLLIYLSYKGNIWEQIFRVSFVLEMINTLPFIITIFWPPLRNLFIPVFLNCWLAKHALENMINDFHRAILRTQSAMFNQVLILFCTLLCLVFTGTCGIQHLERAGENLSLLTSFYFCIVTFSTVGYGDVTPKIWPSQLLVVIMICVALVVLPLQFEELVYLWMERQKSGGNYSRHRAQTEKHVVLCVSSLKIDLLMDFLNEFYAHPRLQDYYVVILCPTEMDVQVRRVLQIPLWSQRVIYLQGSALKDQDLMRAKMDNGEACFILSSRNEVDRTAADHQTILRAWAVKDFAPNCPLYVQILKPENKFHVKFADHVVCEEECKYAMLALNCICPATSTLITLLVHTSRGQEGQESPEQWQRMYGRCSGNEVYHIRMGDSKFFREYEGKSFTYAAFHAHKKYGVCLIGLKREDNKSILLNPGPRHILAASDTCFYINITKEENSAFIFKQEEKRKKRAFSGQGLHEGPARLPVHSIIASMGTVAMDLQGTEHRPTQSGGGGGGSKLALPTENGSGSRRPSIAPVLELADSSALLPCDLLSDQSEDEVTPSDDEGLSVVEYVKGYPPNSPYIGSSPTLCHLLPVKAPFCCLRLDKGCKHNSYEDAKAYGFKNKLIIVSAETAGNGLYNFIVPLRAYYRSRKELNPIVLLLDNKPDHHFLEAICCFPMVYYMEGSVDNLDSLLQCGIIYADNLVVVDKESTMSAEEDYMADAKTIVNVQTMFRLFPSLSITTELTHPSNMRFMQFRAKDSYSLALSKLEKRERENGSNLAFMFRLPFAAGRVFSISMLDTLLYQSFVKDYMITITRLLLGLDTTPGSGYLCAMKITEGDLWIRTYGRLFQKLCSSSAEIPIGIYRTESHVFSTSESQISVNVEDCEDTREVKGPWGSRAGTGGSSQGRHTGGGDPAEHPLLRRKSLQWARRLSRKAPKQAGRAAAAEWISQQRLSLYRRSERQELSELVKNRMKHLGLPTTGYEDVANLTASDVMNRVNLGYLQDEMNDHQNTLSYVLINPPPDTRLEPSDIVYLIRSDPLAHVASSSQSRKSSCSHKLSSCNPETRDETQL
# [2] = Inhibition of human wild type SLACK expressed in CHO cells by Whole-cell automated patch clamp assay; format: cell-based
# [3] = Inhibition of KNa 1.1 (unknown origin); set-up: species or system Homo sapiens
# [4] = molecular target: Sodium channel protein type 5 subunit alpha (Homo sapiens, UniProt Q14524); assay: Inhibition of Nav1.5 (unknown origin) expressed in HEK293T cells at 10 uM by patch-clamp electrophysiology method; format: cell-based
# Chain of Sodium channel protein type 5 subunit alpha (Q14524 whole entry): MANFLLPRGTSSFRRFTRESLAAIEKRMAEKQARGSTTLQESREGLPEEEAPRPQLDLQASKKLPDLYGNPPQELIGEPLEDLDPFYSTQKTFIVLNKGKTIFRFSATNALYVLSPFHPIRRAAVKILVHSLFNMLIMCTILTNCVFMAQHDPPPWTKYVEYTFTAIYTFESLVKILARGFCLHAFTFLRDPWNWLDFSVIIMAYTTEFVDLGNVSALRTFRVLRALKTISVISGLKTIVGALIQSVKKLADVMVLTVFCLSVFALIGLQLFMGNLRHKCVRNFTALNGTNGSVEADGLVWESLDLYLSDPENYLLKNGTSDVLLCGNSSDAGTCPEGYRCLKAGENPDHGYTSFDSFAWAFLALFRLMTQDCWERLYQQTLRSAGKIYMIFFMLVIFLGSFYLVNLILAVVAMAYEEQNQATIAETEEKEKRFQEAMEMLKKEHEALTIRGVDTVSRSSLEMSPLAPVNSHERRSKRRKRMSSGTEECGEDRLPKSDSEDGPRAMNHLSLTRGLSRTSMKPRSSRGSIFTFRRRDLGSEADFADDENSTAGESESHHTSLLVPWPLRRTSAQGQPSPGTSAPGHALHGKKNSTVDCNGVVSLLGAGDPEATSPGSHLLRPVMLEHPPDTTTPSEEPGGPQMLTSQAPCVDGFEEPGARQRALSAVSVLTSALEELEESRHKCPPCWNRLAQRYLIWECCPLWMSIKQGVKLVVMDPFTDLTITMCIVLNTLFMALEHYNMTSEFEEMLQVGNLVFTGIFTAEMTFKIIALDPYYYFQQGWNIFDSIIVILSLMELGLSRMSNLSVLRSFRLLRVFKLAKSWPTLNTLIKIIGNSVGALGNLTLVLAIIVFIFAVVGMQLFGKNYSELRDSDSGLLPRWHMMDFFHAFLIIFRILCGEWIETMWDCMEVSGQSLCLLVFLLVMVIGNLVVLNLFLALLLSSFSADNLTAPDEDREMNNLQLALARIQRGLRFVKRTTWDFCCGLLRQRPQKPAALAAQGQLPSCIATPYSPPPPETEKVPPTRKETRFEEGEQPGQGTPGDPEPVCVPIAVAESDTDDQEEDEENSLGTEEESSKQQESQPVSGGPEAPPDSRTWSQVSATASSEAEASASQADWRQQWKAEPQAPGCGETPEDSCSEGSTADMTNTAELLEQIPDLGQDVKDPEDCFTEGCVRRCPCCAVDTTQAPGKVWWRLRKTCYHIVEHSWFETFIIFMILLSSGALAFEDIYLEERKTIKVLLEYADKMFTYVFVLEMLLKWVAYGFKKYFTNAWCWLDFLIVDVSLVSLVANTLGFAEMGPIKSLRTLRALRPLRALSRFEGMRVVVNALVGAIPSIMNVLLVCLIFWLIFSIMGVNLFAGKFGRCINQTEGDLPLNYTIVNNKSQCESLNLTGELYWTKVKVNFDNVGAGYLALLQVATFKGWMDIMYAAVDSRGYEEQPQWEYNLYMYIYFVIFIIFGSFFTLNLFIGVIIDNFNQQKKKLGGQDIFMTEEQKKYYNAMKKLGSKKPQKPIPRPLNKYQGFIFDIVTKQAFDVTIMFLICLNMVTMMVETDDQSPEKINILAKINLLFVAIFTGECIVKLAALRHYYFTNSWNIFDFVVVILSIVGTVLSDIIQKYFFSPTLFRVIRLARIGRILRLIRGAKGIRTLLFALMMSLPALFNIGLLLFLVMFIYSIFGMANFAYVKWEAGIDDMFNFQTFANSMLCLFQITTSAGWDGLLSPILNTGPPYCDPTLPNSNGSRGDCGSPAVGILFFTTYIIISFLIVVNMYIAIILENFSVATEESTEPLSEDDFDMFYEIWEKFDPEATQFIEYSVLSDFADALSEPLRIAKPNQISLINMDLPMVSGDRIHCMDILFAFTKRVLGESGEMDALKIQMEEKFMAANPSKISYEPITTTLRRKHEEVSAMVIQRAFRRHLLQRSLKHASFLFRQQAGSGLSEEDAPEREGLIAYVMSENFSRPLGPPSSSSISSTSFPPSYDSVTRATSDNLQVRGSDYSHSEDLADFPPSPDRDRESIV
# [5] = molecular target: Voltage-gated inwardly rectifying potassium channel KCNH2 (Homo sapiens, UniProt Q12809); assay: Inhibition of human ERG expressed in Xenopus laevis oocytes at 10 uM by two-electrode voltage clamp method; format: toxicity, cell-based; settings: oocyte
# Chain of Voltage-gated inwardly rectifying potassium channel KCNH2 (Q12809 whole entry): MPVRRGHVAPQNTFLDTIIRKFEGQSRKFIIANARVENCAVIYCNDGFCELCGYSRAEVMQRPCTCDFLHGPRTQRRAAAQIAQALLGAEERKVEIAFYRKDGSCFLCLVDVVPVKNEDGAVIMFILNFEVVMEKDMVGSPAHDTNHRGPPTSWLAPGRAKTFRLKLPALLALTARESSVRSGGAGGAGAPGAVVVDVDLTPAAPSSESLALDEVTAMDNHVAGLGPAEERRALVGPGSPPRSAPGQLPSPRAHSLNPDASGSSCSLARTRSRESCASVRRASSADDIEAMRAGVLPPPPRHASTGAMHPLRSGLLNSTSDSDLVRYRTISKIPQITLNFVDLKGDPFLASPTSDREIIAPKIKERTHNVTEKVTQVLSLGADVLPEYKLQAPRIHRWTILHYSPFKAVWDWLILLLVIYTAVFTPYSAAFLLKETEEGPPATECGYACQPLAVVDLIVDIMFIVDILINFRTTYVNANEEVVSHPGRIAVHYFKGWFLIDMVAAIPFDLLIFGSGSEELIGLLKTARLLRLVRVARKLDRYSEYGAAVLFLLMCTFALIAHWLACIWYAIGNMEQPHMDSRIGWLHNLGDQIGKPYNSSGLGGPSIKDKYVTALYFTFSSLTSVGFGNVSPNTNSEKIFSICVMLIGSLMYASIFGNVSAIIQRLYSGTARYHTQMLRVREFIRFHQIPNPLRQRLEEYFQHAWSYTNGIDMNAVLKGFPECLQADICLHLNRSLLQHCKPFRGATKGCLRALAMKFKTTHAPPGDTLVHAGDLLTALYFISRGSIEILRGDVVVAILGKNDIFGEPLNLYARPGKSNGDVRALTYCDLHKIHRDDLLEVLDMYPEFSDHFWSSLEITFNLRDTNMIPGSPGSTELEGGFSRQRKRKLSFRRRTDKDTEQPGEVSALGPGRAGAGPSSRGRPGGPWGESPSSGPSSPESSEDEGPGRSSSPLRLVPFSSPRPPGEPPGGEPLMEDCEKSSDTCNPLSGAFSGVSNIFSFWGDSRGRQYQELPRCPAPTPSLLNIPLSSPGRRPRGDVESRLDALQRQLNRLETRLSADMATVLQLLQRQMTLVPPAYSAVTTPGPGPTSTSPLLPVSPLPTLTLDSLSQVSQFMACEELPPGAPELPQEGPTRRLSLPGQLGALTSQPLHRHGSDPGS
# [6] = test system: HEK293; assay: Cytotoxicity against HEK293 cells assessed as reduction in cell viability at 10 uM by CCK8 method relative to control; format: toxicity, cell-based; settings: human, hek293, 10 µM
smiles,measurement,setting,value
COc1ccc(Cl)cc1NC(=O)CN1CCN(S(=O)(=O)N2CCC(C)CC2)CC1,IC50,[1],1840 nM
Cc1ccc2cccc(S(=O)(=O)N3CC(c4nc(-c5ccc(F)cc5)no4)C3)c2n1,IC50,[2],320 nM
CCOc1ccccc1S(=O)(=O)N1CC(c2nc(-c3ccsc3)no2)C1,IC50,[3],2100 nM
NCCNCCCc1c(OCc2ccc(Br)cc2)ccc2ccccc12,inhibition (INH),[4],Not Active
same,inhibition (INH),[5],Not Active
CN1CCC(NCc2c(OCc3ccc(F)cc3)ccc3ccccc23)CC1,Activity,[6],53.17%
